Target: T1, SARS-CoV-2 nsp3 (Twinstrep nsp3 (179-1329)-His); PLPro (Severe acute respiratory syndrome coronavirus 2, UniProt P0DTD1)
T1 construct: gene rep
Experiment: fluorescence, RLRGG-AMC cleavage
Type: biochemical
Excerpt: fluorescence, RLRGG-AMC cleavage on SARS-CoV-2 nsp3 (Twinstrep nsp3 (179-1329)-His); PLPro

SMILES	IC50
O=C(O)c1cn(-c2cccc(C(F)(F)F)c2)nn1 [compound 1, Compound 1]	> 100 µM
Cn1ccnc1-c1cn(CCCc2csc(N)n2)nn1 [compound 2, Compound 2]	> 100 µM
COc1ccc(-n2cc(CNC(=O)c3cc[nH]n3)nn2)cc1 [compound 3, Compound 3]	> 100 µM
CC(=O)Nc1ccc(Sc2ccccc2C(=O)O)cn1 [compound 4, Compound 4]	> 100 µM
